Reference: patent publication US20060069038A1, “Irreversible caspase-3 inhibitors as active site probes” (priority 2003, published 2006)

Target: T1, caspase-3 (Rattus norvegicus, UniProt P55213)
T1 construct: endogenous in cells; host or cells: primary rat thymocytes (Sprague-Dawley), spontaneous apoptosis in culture
T1 sequence (P55213 29-175 limits assumed): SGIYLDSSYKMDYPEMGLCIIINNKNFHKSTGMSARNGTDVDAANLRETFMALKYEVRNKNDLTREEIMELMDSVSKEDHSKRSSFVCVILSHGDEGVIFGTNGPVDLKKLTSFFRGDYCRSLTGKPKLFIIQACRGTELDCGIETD
T1 sequence (P55213 176-277 limits assumed): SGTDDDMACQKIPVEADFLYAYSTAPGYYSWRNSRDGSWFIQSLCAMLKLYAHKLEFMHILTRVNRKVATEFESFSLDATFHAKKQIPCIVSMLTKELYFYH
Assay: Saturation labeling of caspases in protein extracts of thymi from CLP-operated rats dosed with M867
Assay type: binding
Conditions: low specific activity probe, 80 μg rat thymus extract
Method: FIG. 7. Comparison of p17 caspase labeled with [^125I]-M808 for a short or a long incubation period. Septic rats were dosed intravenously with either vehicle or the indicated concentration of M867. Thymi were collected 24 hours post-CLP surgery. Western blot showing the appearance of cleaved p17 caspase-3. Partial caspase-3 labeling with high specific activity probe for 5 minutes. Saturated [^125I]-M808 labeling of active caspases in the same thymi extracts with low specific activity probe for 3 hours or 18 hours. During the long incubation period, M867 originally present on caspase-3 (seen from low or absent labeling) dissociates from the active site and is replaced by the irreversible active site probe [^125I]-M808. Displacement is essentially complete by 3 hours since no change in labeling intensity was observed between a 3 h and 18 h incubation period at 37° C.
Quantitation of total amount of active caspase can be determined by exposing protein extracts from either cultured cells (Jurkats, thymocytes) of CLP-derived rat thymi to low-specific activity [^125I]-M808 for long period of time. Briefly, 80 μg of rat thymus protein extracts from CLP-operated rats dosed with M867, were incubated for 3 hours or 18 hours with 1250 M808 (5 nM at 2000 Ci/mmole) and M808 (395 nM). […]

COc1ccc(I)cc1CC(=O)N[C@H](C(=O)NC(CC(=O)O)C(=O)CF)C(C)C (stereo partly drawn) [[^125I]-M808, 5-fluoro-3-({N-[(5-iodo-2-methoxyphenyl)acetyl]-L-valyl}amino)-4-oxopentanoic acid]
incubation time sufficient to label all active caspase-3 quantitatively: 3 h
